Where only a bound is given, the exact number is not on record here.

The text below walks through data of patent publication US20090306133A1, “New Acetyl Coenzyme A Carboxylase (ACC) Inhibitors And Uses In Treatments Of Obesity And Diabetes Mellitus - 087” (ASTRAZENECA AB, priority 2007, published 2009).

Assay type in all cases: biochemical
Assay [1] deals with T1, Human recombinant Acetyl-CoA Carboxylase 2 (ACC2) (Homo sapiens, UniProt O00763). As to the kind of experiment: Assay X: ACC2 inhibition, inorganic phosphate (malachite green). The following applies: Assay X: 37° C., 1.5 h, 5 min pre-incubation. As for the experimental part: (§1) Human recombinant Acetyl-CoA Carboxylase 1 and Acetyl-CoA Carboxylase 2 (ACC1 and ACC2) were assayed by determining the amount of inorganic phosphate (Pi) generated. Pre-incubation of 15 μL enzyme together with 0.75 μL DMSO+/−compound for 5 min was done before the reaction was initiated by the addition of 10 μL substrate. […] After 1.5 h the reaction was stopped by addition of 74 μL of water followed by extensive mixing, split and transfer of 2×40 μL to a read-plate encompassing 30 μL distilled H2O per well (n=2→n=4). Colour reaction was initiated by addition of 30 μL malachite green reagent per well and allowed 15 min before absorbance reading of the plates at 660 nm. The malachite green reagent was prepared by mixing 16.4 mL ammonium molybdate solution (7.5%), 1.64 mL Tween (11%) with 82 mL Malachite Green/H2SO4-solution (0.7 g Malachite Green to 1000 mL of 10% (v/v) H2SO4).
T1 sequence (O00763 whole entry): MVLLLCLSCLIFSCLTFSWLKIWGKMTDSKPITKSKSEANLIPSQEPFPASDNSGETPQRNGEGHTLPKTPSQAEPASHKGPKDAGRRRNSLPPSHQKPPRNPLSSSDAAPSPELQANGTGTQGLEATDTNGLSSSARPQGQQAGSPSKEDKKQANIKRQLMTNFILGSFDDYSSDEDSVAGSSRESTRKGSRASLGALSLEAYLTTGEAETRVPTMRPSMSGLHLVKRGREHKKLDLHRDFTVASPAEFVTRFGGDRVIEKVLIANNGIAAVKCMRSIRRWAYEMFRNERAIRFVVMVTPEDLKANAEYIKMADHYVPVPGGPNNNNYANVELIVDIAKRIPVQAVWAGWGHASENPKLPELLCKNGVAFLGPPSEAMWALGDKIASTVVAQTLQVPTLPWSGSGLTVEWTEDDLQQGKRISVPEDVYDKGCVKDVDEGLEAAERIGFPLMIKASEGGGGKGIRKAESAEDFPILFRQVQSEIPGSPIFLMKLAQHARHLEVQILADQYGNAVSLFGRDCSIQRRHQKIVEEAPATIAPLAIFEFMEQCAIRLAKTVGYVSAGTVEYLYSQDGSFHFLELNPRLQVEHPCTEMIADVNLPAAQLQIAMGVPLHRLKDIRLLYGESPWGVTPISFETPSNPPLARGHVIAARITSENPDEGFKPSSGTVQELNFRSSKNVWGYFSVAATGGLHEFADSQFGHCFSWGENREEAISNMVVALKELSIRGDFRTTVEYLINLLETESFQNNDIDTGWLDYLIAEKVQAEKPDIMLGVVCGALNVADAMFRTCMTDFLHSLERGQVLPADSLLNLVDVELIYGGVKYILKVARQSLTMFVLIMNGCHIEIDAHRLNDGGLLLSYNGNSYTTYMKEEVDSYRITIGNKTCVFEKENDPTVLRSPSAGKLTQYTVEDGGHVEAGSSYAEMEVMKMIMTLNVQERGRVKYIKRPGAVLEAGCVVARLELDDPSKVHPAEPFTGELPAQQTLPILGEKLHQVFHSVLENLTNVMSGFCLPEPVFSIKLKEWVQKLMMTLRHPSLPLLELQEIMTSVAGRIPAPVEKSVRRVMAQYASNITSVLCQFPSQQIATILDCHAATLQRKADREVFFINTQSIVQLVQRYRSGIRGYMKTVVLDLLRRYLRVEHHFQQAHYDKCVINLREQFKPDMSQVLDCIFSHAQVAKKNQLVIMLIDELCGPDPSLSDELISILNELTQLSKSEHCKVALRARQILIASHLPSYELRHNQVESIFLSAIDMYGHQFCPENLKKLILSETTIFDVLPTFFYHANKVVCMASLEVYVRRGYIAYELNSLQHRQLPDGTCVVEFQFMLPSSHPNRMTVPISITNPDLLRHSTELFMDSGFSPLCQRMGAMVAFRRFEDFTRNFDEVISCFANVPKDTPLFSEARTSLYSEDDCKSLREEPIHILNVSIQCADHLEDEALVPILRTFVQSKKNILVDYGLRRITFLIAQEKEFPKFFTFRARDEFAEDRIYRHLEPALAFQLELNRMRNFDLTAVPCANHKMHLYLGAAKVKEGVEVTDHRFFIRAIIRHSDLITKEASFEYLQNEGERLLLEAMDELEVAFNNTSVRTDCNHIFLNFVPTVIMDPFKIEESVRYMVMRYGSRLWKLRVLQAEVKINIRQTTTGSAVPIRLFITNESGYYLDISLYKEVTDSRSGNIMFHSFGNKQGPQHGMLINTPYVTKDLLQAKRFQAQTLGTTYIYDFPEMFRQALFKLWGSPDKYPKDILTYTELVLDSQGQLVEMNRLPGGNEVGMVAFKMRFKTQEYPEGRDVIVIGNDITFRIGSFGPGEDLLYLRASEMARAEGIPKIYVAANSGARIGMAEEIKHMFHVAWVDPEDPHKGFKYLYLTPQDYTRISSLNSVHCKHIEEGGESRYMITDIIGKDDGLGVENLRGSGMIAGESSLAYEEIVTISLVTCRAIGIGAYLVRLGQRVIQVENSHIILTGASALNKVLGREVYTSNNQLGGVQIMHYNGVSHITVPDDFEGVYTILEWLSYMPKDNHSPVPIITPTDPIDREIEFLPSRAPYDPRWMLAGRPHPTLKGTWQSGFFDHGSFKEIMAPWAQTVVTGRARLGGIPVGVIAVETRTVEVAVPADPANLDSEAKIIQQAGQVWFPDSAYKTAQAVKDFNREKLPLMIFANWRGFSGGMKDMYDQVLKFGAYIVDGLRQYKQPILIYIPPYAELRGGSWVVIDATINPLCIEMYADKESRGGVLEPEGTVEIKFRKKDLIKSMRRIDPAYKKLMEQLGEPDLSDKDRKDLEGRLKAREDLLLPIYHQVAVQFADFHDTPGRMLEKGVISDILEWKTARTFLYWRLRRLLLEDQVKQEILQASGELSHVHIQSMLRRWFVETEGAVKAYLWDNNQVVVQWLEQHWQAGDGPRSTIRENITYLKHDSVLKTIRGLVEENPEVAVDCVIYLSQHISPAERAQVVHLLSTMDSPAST
(§2) All compounds were tested in triplicate at 10 different concentrations. Control compound (0, 50 and 100% effect) was included on each plate. […] Curve fitting was done using the following equation: y=(A+((B−A)/(1+((x/C)̂D)))) where A and B represents the curve bottom (% inhibition) and the total amplitude (% inhibition), respectively, whereas C and D are the apparent IC50 and curve slope, respectively.

The target in assay [2] is T2, Human recombinant Acetyl-CoA Carboxylase 1 (ACC1) (Homo sapiens, UniProt Q13085). As to the kind of experiment: Assay X: ACC1 inhibition, inorganic phosphate (malachite green). The following applies: Assay X: 37° C., 1.5 h, 5 min pre-incubation. As for the experimental part: as §1, §2
Assay [3] concerns the target T1, Human recombinant Acetyl-CoA Carboxylase 2 (ACC2). As to the kind of experiment: Assay Y: ACC2 inhibition, inorganic phosphate (Malachite Green). The following applies: Assay Y: room temperature, 3 hr, 15 min preincubation. A digest of the protocol:
(§3)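 Enzyme preincubated with compound 15 min before substrate addition; reaction run 3 h, then phosphate detected with Malachite Green at 670 nm after 10 min at room temperature. Triplicate 10-point titrations; IC50 by non-linear four-parameter curve fitting.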

For assay [4], the target named is T2, Human recombinant Acetyl-CoA Carboxylase 1 (ACC1). As to the kind of experiment: Assay Y: ACC1 inhibition, inorganic phosphate (Malachite Green). The following applies: Assay Y: room temperature, 3 hr, 15 min preincubation. In outline: as §3

As for `CC(C)(C)OC(=O)NC[C@H]1CC[C@H](CNC(=O)c2cc(-c3ccc(N4CCCC(O)C4)nc3)nc3ccccc23)CC1` (relative stereo) [Example 157, tert-Butyl[(trans-4-{[({2-[6-(3-hydroxypiperidin-1-yl)pyridin-3-yl]-quinolin-4-yl}carbonyl)amino]methyl}cyclohexyl)methyl]carbamate], the half-inhibitory concentration (IC50) in assay [1] came out at 180 nM; in assay [2], 410 nM.
On to `CC(=O)N1CCN(c2ccc(-c3cc(C(=O)NC[C@H]4CC[C@H](CNC(=O)OC(C)(C)C)CC4)c4ccccc4n3)cn2)CC1` [Example 142, tert-Butyl [(trans-4-{[({2-[6-(4-acetylpiperazin-1-yl)pyridin-3-yl]quinolin-4-yl}carbonyl)amino]methyl}cyclohexyl)methyl]carbamate], for which the half-maximal inhibitory concentration (IC50) in assay [3] is 130 nM; in assay [4], more than 20000 nM.
The matching figures for `CC(C)(C)OC(=O)NC[C@H]1CC[C@H](CNC(=O)c2cc(-c3ccc(NCCO)nc3)nc3ccccc23)CC1` [Example 143, tert-Butyl{[trans-4-({[(2-{6-[(2-hydroxyethyl)amino]pyridin-3-yl}quinolin-4-yl)carbonyl]amino}methyl)cyclohexyl]methyl}carbamate]: 30 nM and 360 nM.
As for `CC(C)(C)OC(=O)NC[C@H]1CC[C@H](CNC(=O)c2cc(-c3ccc(N4CCCC4)nc3)nc3ccccc23)CC1` [Example 144, tert-Butyl({trans-4-[({[2-(6-pyrrolidin-1-ylpyridin-3-yl)quinolin-4-yl]carbonyl}amino)methyl]cyclohexyl}methyl)carbamate], the IC50 is 220 nM in assay [3] and 4000 nM in assay [4].
The corresponding values for `CC(C)(C)OC(=O)NC[C@H]1CC[C@H](CNC(=O)c2cc(-c3ccc(N4CCOCC4)nc3)nc3ccccc23)CC1` [Example 145, tert-Butyl({trans-4-[({[2-(6-morpholin-4-ylpyridin-3-yl)-quinolin-4-yl]carbonyl}amino)-methyl]cyclohexyl}methyl)carbamate] are 60 nM and 280 nM.
In the case of `CN(C)CCNc1ccc(-c2cc(C(=O)NC[C@H]3CC[C@H](CNC(=O)OC(C)(C)C)CC3)c3ccccc3n2)cn1` [Example 146, tert-Butyl({trans-4-[({[2-(6-{[2-(dimethylamino)ethyl]-amino}pyridin-3-yl)quinolin-4-yl]carbonyl}amino)-methyl]cyclohexyl}-methyl)carbamate], the IC50 in assay [3] came to 30 nM; in assay [4], 180 nM.
The corresponding values for `CC(C)(C)OC(=O)NC[C@H]1CC[C@H](CNC(=O)c2cc(-c3ccc(N4CC[C@@H](O)C4)nc3)nc3ccccc23)CC1` [Example 147, tert-Butyl{[trans-4-({[(2-{6-[(3R)-3-hydroxypyrrolidin-1-yl]pyridin-3-yl}quinolin-4-yl)carbonyl]amino}-methyl)cyclohexyl]-methyl}carbamate] are 30 nM and 2590 nM.
The corresponding values for `C[C@@H](CO)Nc1ccc(-c2cc(C(=O)NC[C@H]3CC[C@H](CNC(=O)OC(C)(C)C)CC3)c3ccccc3n2)cn1` [Example 148, tert-Butyl({trans-4-[({[2-(6-{[(1S)-2-hydroxy-1-methylethyl]amino}-pyridin-3-yl)quinolin-4-yl]carbonyl}amino)-methyl]cyclohexyl}-methyl)carbamate] are 70 nM and 460 nM.
The corresponding values for `C[C@H](CO)Nc1ccc(-c2cc(C(=O)NC[C@H]3CC[C@H](CNC(=O)OC(C)(C)C)CC3)c3ccccc3n2)cn1` [Example 149, tert-Butyl({trans-4-[({[2-(6-{[(1R)-2-hydroxy-1-methylethyl]amino}-pyridin-3-yl)quinolin-4-yl]carbonyl}amino)-methyl]cyclohexyl}-methyl)carbamate] are 50 nM and 390 nM.
As for `CC(C)(C)OC(=O)NC[C@H]1CC[C@H](CNC(=O)c2cc(-c3ccc(OCC4CCOC4)nc3)nc3ccccc23)CC1` (stereo partly drawn) [Example 173, tert-Butyl [(trans-4-{[({2-[6-(tetrahydrofuran-3-ylmethoxy)pyridin-3-yl]quinolin-4-yl}carbonyl)amino]methyl}cyclohexyl)methyl]carbamate], the IC50 in assay [1] came out at 410 nM.
As to `CN1CCN(CCCOc2cc(C(=O)NC[C@H]3CC[C@H](CNC(=O)OC(C)(C)C)CC3)c3ccccc3n2)CC1` [Example 180, tert-Butyl [(trans-4-{[({2-[3-(4-methylpiperazin-1-yl)propoxy]quinolin-4-yl}carbonyl)amino]methyl}cyclohexyl)methyl]carbamate], the IC50 came to 1060 nM in assay [3] and 6910 nM in assay [4].
The corresponding values for `CN(C)CCCOc1cc(C(=O)NC[C@H]2CC[C@H](CNC(=O)OC(C)(C)C)CC2)c2ccccc2n1` [Example 181, tert-Butyl[(trans-4-{[({2-[3-(dimethylamino)-propoxy]quinolin-4-yl}carbonyl)amino]-methyl}cyclohexyl)-methyl]carbamate] are 1340 nM and 12300 nM.
The matching figures for `CN1CCN(CCOc2cc(C(=O)NC[C@H]3CC[C@H](CNC(=O)OC(C)(C)C)CC3)c3ccccc3n2)CC1` [Example 182, tert-Butyl[(trans-4-{[({2-[2-(4-methylpiperazin-1-yl)ethoxy]quinolin-4-yl}carbonyl)amino]methyl}cyclohexyl)methyl]carbamate]: 1760 nM and 6430 nM.
The corresponding values for `CC(=O)N1CCN(CCCOc2cc(C(=O)NC[C@H]3CC[C@H](CNC(=O)OC(C)(C)C)CC3)c3ccccc3n2)CC1` [Example 183, tert-Butyl[(trans-4-{[({2-[3-(4-acetylpiperazin-1-yl)propoxy]quinolin-4-yl}carbonyl)amino]-methyl}cyclohexyl)-methyl]carbamate] are 1260 nM and more than 20000 nM.
Consider `CN(C)CCOc1ccc(-c2cc(C(=O)NC[C@H]3CC[C@H](CNC(=O)OC(C)(C)C)CC3)c3ccccc3n2)cn1` [Example 184, tert-Butyl{[trans-4-({[(2-{6-[2-(dimethylamino)ethoxy]pyridin-3-yl}quinolin-4-yl)carbonyl]amino}-methyl)cyclohexyl]-methyl}carbamate], for which the IC50 was determined as 40 nM in assay [3] and 210 nM in assay [4].
The corresponding values for `CC(C)(C)OC(=O)NC[C@H]1CC[C@H](CNC(=O)c2cc(N3CCN(CCO)CC3)nc3ccccc23)CC1` [Example 185, tert-Butyl [(trans-4-{[({2-[4-(2-hydroxyethyl)piperazin-1-yl]quinolin-4-yl}carbonyl)amino]methyl}cyclohexyl)methyl]carbamate] are 1120 nM and more than 20000 nM.
Regarding `CN(C)CCN1CCN(c2cc(C(=O)NC[C@H]3CC[C@H](CNC(=O)OC(C)(C)C)CC3)c3ccccc3n2)CC1` [Example 186, tert-Butyl{[trans-4-({[(2-{4-[2-(dimethylamino)ethyl]-piperazin-1-yl}quinolin-4-yl)carbonyl]amino}-methyl)cyclohexyl]-methyl}carbamate], the results for the IC50 in assay [3] and in assay [4] were 140 nM and 2220 nM, respectively.
The corresponding values for `CC(C)(C)OC(=O)NC[C@H]1CC[C@H](CNC(=O)c2cc(N3CCC(O)CC3)nc3ccccc23)CC1` [Example 187, tert-Butyl({trans-4-[({[2-(4-hydroxypiperidin-1-yl)quinolin-4-yl]carbonyl}amino)-methyl]cyclohexyl}-methyl)carbamate] are 560 nM and 8480 nM.
The corresponding values for `CC(C)(C)OC(=O)NC[C@H]1CC[C@H](CNC(=O)c2cc(N3CCC(CO)CC3)nc3ccccc23)CC1` [Example 188, tert-Butyl[(trans-4-{[({2-[4-(hydroxymethyl)-piperidin-1-yl]quinolin-4-yl}carbonyl)amino]-methyl}cyclohexyl)-methyl]carbamate] are 270 nM and 5640 nM.
Regarding `CC(C)(C)OC(=O)NC[C@H]1CC[C@H](CNC(=O)c2cc(N3CCC(CCO)CC3)nc3ccccc23)CC1` [Example 189, tert-butyl [(trans-4-{[({2-[4-(2-hydroxyethyl)piperidin-1-yl]quinolin-4-yl}carbonyl)amino]methyl}cyclohexyl)methyl]carbamate], the values for the IC50 in assay [3] and in assay [4] were 70 nM and 1960 nM, respectively.
For `CN1CCN(c2ccc(-c3cc(C(=O)N[C@H]4CC[C@H](CNC(=O)OC(C)(C)C)CC4)c4ccccc4n3)cn2)CC1` [Example 204, tert-Butyl ({trans-4-[({2-[6-(4-methylpiperazin-1-yl)pyridin-3-yl]quinolin-4-yl}carbonyl)amino]cyclohexyl}methyl)carbamate], the half-maximal inhibitory concentration (IC50) in assay [3] came to 380 nM; in assay [4], 3800 nM.
